Test in all cases: cell-based
One test has as its target hNav1.7 (Homo sapiens, UniProt Q15858). It is filed as cell-based. The settings on record: IonWorks Quattro, read-out: IWQ Use Nav1.7. Background: In patch-clamp work, channel activity is measured electrically.
A further test concerns the target hNav1.5 (Homo sapiens, UniProt Q14524). The note with it: IonWorks Quattro, read-out: IWQ Use Nav1.5.
Another test addresses hNav1.3 (Homo sapiens, UniProt Q9NY46). The settings on record: IonWorks Quattro, read-out: IWQ Use Nav1.3.
Setting [1] is: clamped to −110 mV, depolarized to −10 mV, 5 min after compound, n=2.

Our source for the IC50 values is patent US9340590B2 (priority 2011, dated 2016).

Where two headings read alike, the source gives them in different places. Positions of bridges follow the written chain, without caps; N, C: chain ends. Non-standard residues stand in square brackets, D forms with d. Residues, ends and D or L forms follow the SMILES beside them. Phg = N[C@H](C(=O)O)c1ccccc1; Abu = CC[C@H](N)C(=O)O

hNav1.5, sequence (Q14524 whole entry, looked up): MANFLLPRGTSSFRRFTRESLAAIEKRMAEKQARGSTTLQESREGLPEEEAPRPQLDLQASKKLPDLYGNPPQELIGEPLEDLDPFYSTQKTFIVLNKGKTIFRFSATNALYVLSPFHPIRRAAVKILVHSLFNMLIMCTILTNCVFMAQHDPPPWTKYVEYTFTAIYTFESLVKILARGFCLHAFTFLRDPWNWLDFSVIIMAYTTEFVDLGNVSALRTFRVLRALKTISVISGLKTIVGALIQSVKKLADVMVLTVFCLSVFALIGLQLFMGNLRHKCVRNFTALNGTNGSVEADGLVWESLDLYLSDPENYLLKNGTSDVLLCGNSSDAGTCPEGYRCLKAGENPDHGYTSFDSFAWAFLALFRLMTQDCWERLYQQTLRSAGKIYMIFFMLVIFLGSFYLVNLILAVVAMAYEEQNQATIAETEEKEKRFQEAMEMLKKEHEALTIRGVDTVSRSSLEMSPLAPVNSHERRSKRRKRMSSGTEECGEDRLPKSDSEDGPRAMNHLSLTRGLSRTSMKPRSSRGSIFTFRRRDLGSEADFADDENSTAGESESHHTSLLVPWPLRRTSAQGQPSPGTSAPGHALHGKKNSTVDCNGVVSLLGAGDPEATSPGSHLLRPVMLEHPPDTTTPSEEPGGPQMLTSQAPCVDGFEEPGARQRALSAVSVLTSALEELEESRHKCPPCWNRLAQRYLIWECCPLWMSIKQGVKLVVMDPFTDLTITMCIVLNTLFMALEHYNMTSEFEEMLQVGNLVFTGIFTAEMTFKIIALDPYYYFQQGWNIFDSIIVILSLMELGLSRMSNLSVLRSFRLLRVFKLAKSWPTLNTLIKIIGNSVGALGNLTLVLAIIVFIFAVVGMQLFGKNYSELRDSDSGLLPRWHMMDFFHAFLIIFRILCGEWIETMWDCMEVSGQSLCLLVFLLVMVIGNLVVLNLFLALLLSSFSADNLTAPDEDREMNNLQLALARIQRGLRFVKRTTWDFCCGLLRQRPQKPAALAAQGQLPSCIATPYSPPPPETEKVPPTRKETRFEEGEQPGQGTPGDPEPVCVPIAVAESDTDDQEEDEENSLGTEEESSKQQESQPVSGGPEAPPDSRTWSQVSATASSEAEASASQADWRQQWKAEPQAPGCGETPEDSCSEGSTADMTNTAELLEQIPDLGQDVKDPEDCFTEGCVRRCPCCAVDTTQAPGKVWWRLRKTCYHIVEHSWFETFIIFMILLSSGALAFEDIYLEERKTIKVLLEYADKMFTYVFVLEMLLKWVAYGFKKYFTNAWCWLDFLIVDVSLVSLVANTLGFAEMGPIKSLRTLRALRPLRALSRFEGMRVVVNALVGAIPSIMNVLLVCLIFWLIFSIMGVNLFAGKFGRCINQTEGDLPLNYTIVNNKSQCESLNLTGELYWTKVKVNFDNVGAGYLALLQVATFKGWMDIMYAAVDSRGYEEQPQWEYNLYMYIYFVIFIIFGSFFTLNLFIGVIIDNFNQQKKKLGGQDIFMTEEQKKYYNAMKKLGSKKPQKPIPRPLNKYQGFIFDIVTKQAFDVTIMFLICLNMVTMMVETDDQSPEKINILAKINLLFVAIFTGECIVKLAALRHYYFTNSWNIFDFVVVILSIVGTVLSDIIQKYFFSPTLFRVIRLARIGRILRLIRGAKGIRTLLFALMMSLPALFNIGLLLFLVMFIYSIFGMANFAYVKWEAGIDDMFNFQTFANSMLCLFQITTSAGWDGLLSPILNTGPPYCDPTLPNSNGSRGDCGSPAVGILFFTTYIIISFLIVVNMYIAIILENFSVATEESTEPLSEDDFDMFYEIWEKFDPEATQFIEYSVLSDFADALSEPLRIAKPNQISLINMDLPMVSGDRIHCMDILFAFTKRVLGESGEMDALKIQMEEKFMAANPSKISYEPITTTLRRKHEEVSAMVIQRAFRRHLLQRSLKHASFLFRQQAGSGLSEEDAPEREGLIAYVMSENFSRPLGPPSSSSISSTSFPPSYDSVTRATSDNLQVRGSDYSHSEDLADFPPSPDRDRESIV
hNav1.3, sequence (Q9NY46 whole entry, looked up): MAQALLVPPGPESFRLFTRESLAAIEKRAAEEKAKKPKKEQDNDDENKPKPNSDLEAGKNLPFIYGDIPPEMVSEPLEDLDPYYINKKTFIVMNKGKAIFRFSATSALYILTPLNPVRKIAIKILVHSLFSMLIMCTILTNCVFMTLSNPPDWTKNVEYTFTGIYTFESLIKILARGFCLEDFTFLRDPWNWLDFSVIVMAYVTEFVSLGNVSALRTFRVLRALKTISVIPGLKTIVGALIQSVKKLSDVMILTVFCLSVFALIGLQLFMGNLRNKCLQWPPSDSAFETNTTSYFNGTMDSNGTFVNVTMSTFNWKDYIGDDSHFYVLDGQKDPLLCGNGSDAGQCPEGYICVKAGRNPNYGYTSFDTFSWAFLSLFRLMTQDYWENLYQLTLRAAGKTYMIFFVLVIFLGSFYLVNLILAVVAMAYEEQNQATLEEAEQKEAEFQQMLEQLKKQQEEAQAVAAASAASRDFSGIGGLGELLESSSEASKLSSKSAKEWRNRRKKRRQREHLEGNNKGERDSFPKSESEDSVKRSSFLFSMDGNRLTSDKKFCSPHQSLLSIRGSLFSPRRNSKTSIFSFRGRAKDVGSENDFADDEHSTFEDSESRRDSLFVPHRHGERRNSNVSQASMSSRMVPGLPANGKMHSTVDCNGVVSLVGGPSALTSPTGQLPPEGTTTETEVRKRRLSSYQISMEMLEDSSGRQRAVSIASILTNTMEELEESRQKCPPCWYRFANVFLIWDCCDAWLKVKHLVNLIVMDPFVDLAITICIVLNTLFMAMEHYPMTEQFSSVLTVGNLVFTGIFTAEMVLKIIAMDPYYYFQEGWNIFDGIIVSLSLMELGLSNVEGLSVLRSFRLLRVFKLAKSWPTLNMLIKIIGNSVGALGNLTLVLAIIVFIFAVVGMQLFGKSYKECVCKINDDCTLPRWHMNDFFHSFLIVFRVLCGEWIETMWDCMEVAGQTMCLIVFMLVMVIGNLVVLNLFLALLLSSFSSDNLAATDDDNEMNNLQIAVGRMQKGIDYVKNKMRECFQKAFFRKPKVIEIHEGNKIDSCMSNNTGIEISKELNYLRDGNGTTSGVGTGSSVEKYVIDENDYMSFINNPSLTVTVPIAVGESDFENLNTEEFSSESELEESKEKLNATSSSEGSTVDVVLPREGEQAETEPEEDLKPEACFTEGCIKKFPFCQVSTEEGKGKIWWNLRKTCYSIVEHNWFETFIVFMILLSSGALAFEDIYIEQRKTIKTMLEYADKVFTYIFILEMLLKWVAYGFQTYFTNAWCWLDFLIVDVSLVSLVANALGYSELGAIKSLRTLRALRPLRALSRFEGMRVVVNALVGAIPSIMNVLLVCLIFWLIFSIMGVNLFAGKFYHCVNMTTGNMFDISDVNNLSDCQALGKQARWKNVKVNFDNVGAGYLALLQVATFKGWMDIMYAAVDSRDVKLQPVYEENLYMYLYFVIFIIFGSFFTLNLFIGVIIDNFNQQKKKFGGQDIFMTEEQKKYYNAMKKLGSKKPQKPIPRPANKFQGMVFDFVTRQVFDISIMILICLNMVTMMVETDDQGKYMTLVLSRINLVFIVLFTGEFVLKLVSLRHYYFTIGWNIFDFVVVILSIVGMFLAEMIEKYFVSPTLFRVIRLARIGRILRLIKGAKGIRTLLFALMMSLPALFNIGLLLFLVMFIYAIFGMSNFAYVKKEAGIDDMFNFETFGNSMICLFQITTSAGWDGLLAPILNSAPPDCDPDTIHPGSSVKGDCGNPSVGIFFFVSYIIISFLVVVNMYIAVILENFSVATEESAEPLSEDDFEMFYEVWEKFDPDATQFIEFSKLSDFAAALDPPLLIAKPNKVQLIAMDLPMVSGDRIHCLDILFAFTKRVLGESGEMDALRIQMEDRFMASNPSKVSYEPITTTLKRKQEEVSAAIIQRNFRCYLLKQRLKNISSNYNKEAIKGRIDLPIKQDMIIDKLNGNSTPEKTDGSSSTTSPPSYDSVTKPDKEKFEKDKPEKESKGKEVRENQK

Consider `CSCC[C@@H]1NC(=O)[C@H]([C@@H](C)O)NC(=O)CNC(=O)[C@H](CC(C)C)NC(=O)[C@@H](NC(=O)[C@@H](N)CC(=O)O)CSSC[C@@H]2NC(=O)[C@@H]3CSSC[C@@H](C(=O)N[C@@H](CCCCN)C(=O)N[C@@H](Cc4ccc(O)cc4)C(=O)N[C@H](C(=O)N[C@@H](Cc4ccccc4)C(N)=O)C(C)C)NC(=O)[C@H](Cc4c[nH]c5ccccc45)NC(=O)[C@H](CCCCN)NC(=O)[C@H](Cc4c[nH]cn4)NC(=O)[C@H]([C@@H](C)O)NC(=O)[C@H](CCCNC(=N)N)NC(=O)[C@H](CO)NC(=O)[C@H](CSSC[C@H](NC(=O)[C@H](CCCCN)NC(=O)[C@H](CCCNC(=N)N)NC1=O)C(=O)N[C@@H](CC(=O)O)C(=O)N1CCC[C@H]1C(=O)N[C@@H](CCC(=O)O)C(=O)N[C@@H](CC(N)=O)C(=O)N[C@@H](CC(=O)O)C(=O)N[C@@H](CCCCN)C(=O)N3)NC(=O)[C@H](C(C)C)NC(=O)[C@H](CC(C)C)NC(=O)[C@H](CC(N)=O)NC(=O)[C@@H]1CCCN1C(=O)[C@H](CCCNC(=N)N)NC2=O` [compound 773] (H-DCLGTMRKCDPENDKCCRPNLVCSRTHKWCKYVF-NH2; disulfide 2-17, 9-23, 16-30), for which the IC50 at hNav1.7 (use-dependent block, hNav1.7) amounted to 4.5 µM; at hNav1.5 (use-dependent block, hNav1.5) it was 28.4 µM; on hNav1.3 (use-dependent block, hNav1.3), 3.4 µM.

`CC[C@H](C)[C@@H]1NC(=O)[C@@H]2CSSC[C@@H]3NC(=O)[C@H](C(C)C)NC(=O)[C@H](CC(C)C)NC(=O)[C@H](CC(N)=O)NC(=O)[C@@H]4CCCN4C(=O)[C@H](CCCNC(=N)N)NC(=O)[C@H](CSSC[C@H](NC(=O)[C@@H](N)CC(=O)O)C(=O)N[C@@H](CC(C)C)C(=O)NCC(=O)N[C@@H](Cc4ccccc4)C(=O)N[C@@H](Cc4c[nH]c5ccccc45)C(=O)N[C@@H](CCCNC(=N)N)C(=O)N[C@@H](CCCCN)C(=O)N2)NC(=O)[C@H](CSSC[C@@H](C(=O)N[C@@H](CCCCN)C(=O)N[C@@H](Cc2ccc(O)cc2)C(=O)N[C@H](C(=O)N[C@@H](Cc2ccccc2)C(N)=O)C(C)C)NC(=O)[C@H](Cc2c[nH]c4ccccc24)NC(=O)[C@H](CCCCN)NC(=O)[C@H](Cc2c[nH]cn2)NC(=O)[C@H](CC(C)C)NC(=O)[C@H](CCCNC(=N)N)NC(=O)[C@H](CO)NC3=O)NC(=O)[C@H](CCCCN)NC(=O)[C@H](CC(=O)O)NC(=O)[C@H](CC(N)=O)NC(=O)[C@H](CC(=O)O)NC(=O)[C@@H]2CCCN2C1=O` [compound 456] (H-DCLGFWRKCIPDNDKCCRPNLVCSRLHKWCKYVF-NH2; disulfide 2-17, 9-23, 16-30): the IC50 at hNav1.7 (use-dependent block, hNav1.7) is 0.03 µM; at hNav1.5 (use-dependent block, hNav1.5) it was more than 5 µM; at hNav1.3 (use-dependent block, hNav1.3), 0.01 µM.

For the compound `CC[C@@H]1NC(=O)[C@H](CCCCN)NC(=O)[C@H](CCCNC(=N)N)NC(=O)[C@H](CCSC)NC(=O)[C@H](Cc2ccccc2)NC(=O)CNC(=O)[C@H](CC(C)C)NC(=O)[C@@H](NC(=O)[C@@H](N)CC(=O)O)CSSC[C@@H]2NC(=O)[C@H](CSSC[C@@H](C(=O)N[C@@H](CCCCN)C(=O)N[C@@H](Cc3ccc(O)cc3)C(=O)N[C@H](C(=O)N[C@@H](Cc3ccccc3)C(N)=O)C(C)C)NC(=O)[C@H](Cc3c[nH]c4ccccc34)NC(=O)[C@H](CCCCN)NC(=O)[C@H](Cc3c[nH]cn3)NC(=O)[C@H]([C@@H](C)O)NC(=O)[C@H](CCCNC(=N)N)NC(=O)[C@H](CO)NC(=O)[C@H](CC)NC(=O)[C@H](C(C)C)NC(=O)[C@H](CC(C)C)NC(=O)[C@H](CC(N)=O)NC(=O)[C@@H]3CCCN3C(=O)[C@H](CCCNC(=N)N)NC2=O)NC(=O)[C@H](CCCCN)NC(=O)[C@H](CC(=O)O)NC(=O)[C@H](CC(N)=O)NC(=O)[C@H](CC(=O)O)NC(=O)[C@@H]2CCCN2C(=O)[C@H]([C@@H](C)CC)NC1=O` [compound 135] (H-DCLGFMRK[Abu]IPDNDKCCRPNLV[Abu]SRTHKWCKYVF-NH2; disulfide 2-17, 16-30), the IC50 on hNav1.7 (use-dependent block, hNav1.7) turned out to be 8.14 µM; at hNav1.5 (use-dependent block, hNav1.5), 9.21 µM; at hNav1.3 (use-dependent block, hNav1.3) it was 12.3 µM.

Regarding `CC[C@H](C)[C@@H]1NC(=O)[C@@H]2CSSC[C@@H]3NC(=O)[C@H](C(C)C)NC(=O)[C@H](CC(C)C)NC(=O)[C@H](CC(N)=O)NC(=O)[C@@H]4CCCN4C(=O)[C@H](CCCNC(=N)N)NC(=O)[C@H](CSSC[C@H](NC(=O)[C@@H](N)CC(=O)O)C(=O)N[C@@H](CC(C)C)C(=O)NCC(=O)N[C@@H](Cc4ccc(Cl)c(Cl)c4)C(=O)N[C@@H](CC(C)C)C(=O)N[C@@H](CCCNC(=N)N)C(=O)N[C@@H](CCCCN)C(=O)N2)NC(=O)[C@H](CSSC[C@@H](C(=O)N[C@@H](CCCCN)C(=O)N[C@@H](Cc2ccc(O)cc2)C(=O)N[C@H](C(=O)N[C@@H](Cc2ccccc2)C(N)=O)C(C)C)NC(=O)[C@H](Cc2c[nH]c4ccccc24)NC(=O)[C@H](CCCCN)NC(=O)[C@H](Cc2c[nH]cn2)NC(=O)[C@H]([C@@H](C)O)NC(=O)[C@H](CCCNC(=N)N)NC(=O)[C@H](CO)NC3=O)NC(=O)[C@H](CCCCN)NC(=O)[C@H](CC(=O)O)NC(=O)[C@H](CC(N)=O)NC(=O)[C@H](CC(=O)O)NC(=O)[C@@H]2CCCN2C1=O` [compound 666], the IC50 at hNav1.7 (use-dependent protocol, hNav1.7) stood at 0.029 µM; on hNav1.5 (use-dependent protocol, hNav1.5), 4.5 µM; at hNav1.3 (use-dependent protocol, hNav1.3) it was 0.016 µM.

Turning to `CC[C@H](C)[C@@H]1NC(=O)[C@@H]2CSSC[C@@H]3NC(=O)[C@H](C(C)C)NC(=O)[C@H](CC(C)C)NC(=O)[C@H](CC(N)=O)NC(=O)[C@@H]4CCCN4C(=O)[C@H](CCCNC(=N)N)NC(=O)[C@H](CSSC[C@H](NC(=O)[C@@H](N)CC(=O)O)C(=O)N[C@@H](CC(C)C)C(=O)NCC(=O)N[C@@H](Cc4ccccc4)C(=O)N[C@@H](CCSC)C(=O)N[C@@H](CCCNC(=N)N)C(=O)N[C@@H](CCCCN)C(=O)N2)NC(=O)[C@H](CSSC[C@@H](C(=O)N[C@@H](CCCCN)C(=O)N[C@@H](Cc2ccc(O)cc2)C(=O)N[C@H](C(=O)N[C@@H](Cc2ccccc2)C(N)=O)C(C)C)NC(=O)[C@H](c2ccccc2)NC(=O)[C@H](CCCCN)NC(=O)[C@H](Cc2c[nH]cn2)NC(=O)[C@H]([C@@H](C)O)NC(=O)[C@H](CCCNC(=N)N)NC(=O)[C@H](CO)NC3=O)NC(=O)[C@H](CCCCN)NC(=O)[C@H](CC(=O)O)NC(=O)[C@H](CC(N)=O)NC(=O)[C@H](CC(=O)O)NC(=O)[C@@H]2CCCN2C1=O` [compound 362] (H-DCLGFMRKCIPDNDKCCRPNLVCSRTHK[Phg]CKYVF-NH2; disulfide 2-17, 9-23, 16-30), the IC50 on hNav1.7 (Table 24, use, […]) was found to be 5.52 µM; at hNav1.5 (Table 24, use, […]) it was 7.85 µM; at hNav1.3 (Table 24, use, […]) it was 3.18 µM.

For the compound `CC[C@H](C)[C@@H]1NC(=O)[C@@H]2CSSC[C@@H]3NC(=O)[C@H](C(C)C)NC(=O)[C@H](CC(C)C)NC(=O)[C@H](CC(N)=O)NC(=O)[C@@H]4CCCN4C(=O)[C@H](CCCNC(=N)N)NC(=O)[C@H](CSSC[C@H](NC(=O)[C@@H](N)CC(=O)O)C(=O)N[C@@H](CC(C)C)C(=O)NCC(=O)N[C@@H](Cc4ccccc4)C(=O)N[C@@H](CCSC)C(=O)N[C@@H](CCCNC(=N)N)C(=O)N[C@@H](CCCCN)C(=O)N2)NC(=O)[C@H](CSSC[C@@H](C(=O)N[C@@H](CCCCN)C(=O)N[C@@H](Cc2ccc(O)cc2)C(=O)N[C@H](C(=O)N[C@@H](Cc2ccccc2)C(N)=O)C(C)C)NC(=O)[C@H](Cc2c[nH]c4ccccc24)NC(=O)[C@H](CCCCN)NC(=O)[C@H](Cc2c[nH]cn2)NC(=O)[C@@H]2CCCN2C(=O)[C@H](CCCNC(=N)N)NC(=O)[C@H](CO)NC3=O)NC(=O)[C@H](CCCCN)NC(=O)[C@H](CC(=O)O)NC(=O)[C@H](CC(N)=O)NC(=O)[C@H](CC(=O)O)NC(=O)[C@@H]2CCCN2C1=O` [compound 345] (H-DCLGFMRKCIPDNDKCCRPNLVCSRPHKWCKYVF-NH2; disulfide 2-17, 9-23, 16-30), the IC50 was found to be 0.18 µM on hNav1.7 (Table 22, use, […]); 6.65 µM on hNav1.5 (Table 22, use, […]); 0.16 µM on hNav1.3 (Table 22, use, […]).

In the case of `CC[C@H](C)[C@@H]1NC(=O)[C@@H]2CSSC[C@@H]3NC(=O)[C@H](C(C)C)NC(=O)[C@H](CC(C)C)NC(=O)[C@H](CC(N)=O)NC(=O)[C@@H]4CCCN4C(=O)[C@H](CCCNC(=N)N)NC(=O)[C@H](CSSC[C@H](NC(=O)[C@@H](N)CC(=O)O)C(=O)N[C@@H](CC(C)C)C(=O)NCC(=O)N[C@@H](Cc4ccc(C(=O)O)cc4)C(=O)N[C@@H](CCSC)C(=O)N[C@@H](CCCNC(=N)N)C(=O)N[C@@H](CCCCN)C(=O)N2)NC(=O)[C@H](CSSC[C@@H](C(=O)N[C@@H](CCCCN)C(=O)N[C@@H](Cc2ccc(O)cc2)C(=O)N[C@H](C(=O)N[C@@H](Cc2ccccc2)C(N)=O)C(C)C)NC(=O)[C@H](Cc2c[nH]c4ccccc24)NC(=O)[C@H](CCCCN)NC(=O)[C@H](Cc2c[nH]cn2)NC(=O)[C@H]([C@@H](C)O)NC(=O)[C@H](CCCNC(=N)N)NC(=O)[C@H](CO)NC3=O)NC(=O)[C@H](CCCCN)NC(=O)[C@H](CC(=O)O)NC(=O)[C@H](CC(N)=O)NC(=O)[C@H](CC(=O)O)NC(=O)[C@@H]2CCCN2C1=O` [SEQ ID NO: 276], the figures for the IC50 at hNav1.7 (setting [1]), at hNav1.5 (setting [1]) and at hNav1.3 (setting [1]) were 16 µM, 8.12 µM and 5.42 µM, respectively.
